Results published in patent US5686448A (priority 1995, dated 1997).
“And” between values parts separate entries of the source, which are not always exact repeats. Equal values may be shown once. Read-outs that look alike come from different tables or passages of the source.

What was measured:
[1] = system: Vero cells
Protocol: To determine the toxicity level of the drug, all three cell lines--RK-13, Vero cells, and WISH cells--were used. In the toxicity experiments, the effect of the drug on the uninfected cell for a range of periods of time was determined. Accordingly, cultures were incubated with and without the drug. The time of exposure was from one to seven hours. A comparison was then made between the drug tested cultures and the control cultures. After each period of incubation, the cells were washed and fresh media was added to the cells. The cell viability was then determined by dividing these cultures and having them grow into new cell cultures.
At the end of the incubation period, the cultures were washed twice with sterile PBS (Dulbecco). Fresh medium was added to each of the cultures. The cultures were then incubated for an additional 24 hours.
(§1) Healthy confluent monolayer cell cultures were overlaid with 1 ml of the drug and incubated for 48 hours at 37° C. and then stained. Cell cultures with maintenance media were used as controls.

[2] = system: Flow 1000 cells (foreskin cells); conditions: 25 mg/ml, 48 hours
Protocol: as §1

[3] = system: HSV-1 (McKrae strain); conditions: for No. of Plaques: virus controls 270, 270, 252
Protocol: All cultures were incubated at 37° C. in a 5% CO2 humidified atmosphere. The cultures were stained with crystal violet to aid in counting the plaque.

[4] = system: cell-free HSV virus; conditions: 20 mg/ml
Protocol: Both mixtures were maintained at 4° C. for 30 minutes, 60 minutes, or 90 minutes. 0.3 ml of the solutions were plated onto susceptible cell cultures and incubated at 37° C. for 36 hours. All cultures were stained and compared to the virus control.

[5] = system: HSV-1 (F strain)
[6] = system: RK-13, Vero and WISH cells
[7] = system: HSV type 2;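 further: individual clinical case observations in adult human patients with a history of recurrent HSV type 2 lesions, outcomes described qualitatively as reported symptoms and lesion episodes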
[8] = system: HSV types 1 and 2 (herpes simplex)
[9] = Patient J, following day, 1% TEAC ointment topical
[10] = Patient J, two days after infusion 3.6 cc
[11] = Patient K, after second infusion
[12] = Patient B, fourth treatment 4.8 cc
[13] = Patient B, third treatment 4.5 cc
[14] = Patient I, three months after second infusion

**Q.** How did the toxicity ([1]; 25 mg/ml, 48 hours) turn out when `CC[N+](CC)(CC)CC.[Cl-]` [TEAC, tetraethylammonium chloride] was run?
**A.** slight toxicity

**Q.** What about the “change in morphology of cells” value ([1]; 5, 2.5, 1.25 mg/culture overnight) of the same compound?
**A.** No change in the morphology of the cells

**Q.** What about the “growth or general appearance vs untreated” value ([1]; 5, 2.5, 1.25 mg/culture, additional 24 hours in fresh medium) of the same compound?
**A.** no apparent difference in the growth or general appearance

**Q.** What about the toxicity [2] of the same compound?
**A.** toxicity

**Q.** What about the enhancement of plaque ([3]; 12.5 mg/ml) of the same compound?
**A.** apparent enhancement of plaque

**Q.** What about the “No. of Plaques” value ([3]; 12.5 mg/ml) of the same compound?
**A.** 300

**Q.** And the monolayer appearance ([3]; 25 mg/ml)?
**A.** thinned out appearance

**Q.** What about the “No. of Plaques” value ([3]; 25 mg/ml) of the same compound?
**A.** 0

**Q.** What about the plaque inhibition ([3]; 12.5, 6.25, 3.125 mg/ml) of the same compound?
**A.** not significantly effective in achieving plaque inhibition

**Q.** What about the “inactivation of cell-free virus” value [4] of the same compound?
**A.** does not inactivate the virus

**Q.** What about the average plaque number ([5]; 2.5 mg/ml (1 ml plus 4 ml media), Vero, control 488.5) of the same compound?
**A.** 75.5 plaque

**Q.** What about the “size of the plaque vs control” value ([5]; 2.5 mg/ml, Vero) of the same compound?
**A.** appreciably smaller

**Q.** And the “suppression of viral growth” value ([5]; summary of first series)?
**A.** not only by the reduced number of plaque, but also by their reduced size

**Q.** And the “reversibility of toxicity (thin) / morphology changes” value ([6]; drug removed, fresh media added)?
**A.** totally reversible

**Q.** What about the “change in morphology or cytopathic effect” value ([6]; one to seven hours exposure) of the same compound?
**A.** No change in morphology or cytopathic effect

**Q.** And the “rate of growth vs cultures without TEAC” value ([6]; one to seven hours exposure)?
**A.** no difference in the rate of growth

**Q.** What about the toxicity to cells ([6]; one to seven hours exposure) of the same compound?
**A.** not toxic to cells

**Q.** What about the “tiny areas under the skin” value ([7]; Patient A, about two weeks after third infusion 3.4 cc) of the same compound?
**A.** disappeared in about a day

**Q.** And the duration of vesicles ([7]; Patient A, after first infusion)?
**A.** disappeared in two to three days without pain

**Q.** And the duration of spots ([7]; Patient A, after third infusion)?
**A.** 24 h

**Q.** What about the “recurrence of lesions or pain” value ([7]; Patient A, eighteen months after initial exam) of the same compound?
**A.** no further lesions or pain

**Q.** And the sciatic pain ([7]; Patient A, first infusion 2.8 cc of 100 mg/cc)?
**A.** cessation of sciatic pain

**Q.** What about the sciatic nerve pain ([7]; Patient A, second infusion 3.2 cc) of the same compound?
**A.** the sciatic nerve pain disappeared during the infusion

**Q.** And the itching and tingling ([7]; Patient D)?
**A.** itching and tingling disappeared

**Q.** And the lesions ([7]; Patient D, two days later)?
**A.** all lesions were improving

**Q.** What about the lesions ([7]; Patient E, 5 days after third infusion 5 cc) of the same compound?
**A.** all lesions had cleared up

**Q.** What about the prodome and lesions ([7]; Patient E, after first infusion) of the same compound?
**A.** massive prodome with large weeping lesions

**Q.** And the “pinpoint lesions breaking out” value ([7]; Patient E, after third infusion)?
**A.** 5-6 pinpoint lesions

**Q.** What about the prodome and lesions ([7]; Patient E, next day after second infusion) of the same compound?
**A.** no prodome and no lesions

**Q.** And the breakout ([7]; Patient E, second day after second infusion)?
**A.** another breakout was occurring

**Q.** And the lesions ([7]; Patient E, two days after first infusion)?
**A.** the lesions had started to crust

**Q.** What about the general condition ([7]; Patient F, about 3 weeks later) of the same compound?
**A.** completely cleared up

**Q.** What about the lesion ([7]; Patient F, next day, 3.8 cc) of the same compound?
**A.** improved

**Q.** And the new lesions ([7]; Patient F, nine days after second infusion)?
**A.** on the other side lesions had developed

**Q.** What about the “duration of subsequent lesions” value ([7]; Patient F, subsequent follow up) of the same compound?
**A.** 12 days and 7 days

**Q.** And the crusting of lesions ([7]; Patient G, 4.3 cc)?
**A.** never crusted

**Q.** And the psoriasis ([7]; Patient G, 4.3 cc)?
**A.** psoriasis improved

**Q.** What about the “time to disappearance of lesions” value ([7]; Patient G, 4.3 cc) of the same compound?
**A.** ≤ 48 h

**Q.** What about the lesions ([7]; Patient G, next day, 4.3 cc) of the same compound?
**A.** the lesions improving

**Q.** What about the setback ([7]; Patient H, 6 days later) of the same compound?
**A.** setback 6 days later when the condition became a visual attack

**Q.** What about the improvement ([7]; Patient H, following day, 4.6 cc (6.0 mg/kg)) of the same compound?
**A.** striking improvement

**Q.** And the further problems ([7]; Patient H, six months after treatment, besides 2 minor incidents of red spots and some aura)?
**A.** no further problems

**Q.** And the incidents since treatment ([7]; Patient J, 12 months later, ointment applied)?
**A.** very few incidents since treatment

**Q.** What about the new vesicles [7, 9] of the same compound?
**A.** 2 vesicles

**Q.** And the tingling and redness [7, 9]?
**A.** the tingling and redness had gone

**Q.** And the duration of lesion ([7]; Patient J, later attack, 1% TEAC ointment topical)?
**A.** 3 days

**Q.** And the lesions ([7]; Patient J, three days later, 1% TEAC ointment topical)?
**A.** all the lesions had dried up

**Q.** And the lesions [7, 10]?
**A.** the lesions were drying

**Q.** And the pain [7, 10]?
**A.** the pain had disappeared

**Q.** And the duration of attacks [7, 11]?
**A.** 2 to 3 days

**Q.** What about the severity of attacks [7, 11] of the same compound?
**A.** milder severity

**Q.** What about the expected attack ([7]; Patient K, six weeks after second infusion 3.4 cc) of the same compound?
**A.** the attack had not occurred

**Q.** And the oral lesion resolution ([8]; Patient B, 3 days after first infusion)?
**A.** resolution occurring in a shorter than usual time

**Q.** And the severity of attack ([8]; Patient B, about a month after second treatment)?
**A.** the attack was never serious and that no lesion appeared

**Q.** What about the attacks ([8]; Patient B, about a month later) of the same compound?
**A.** no more attacks

**Q.** And the aura and lesion ([8]; Patient B, day after second 3.7 cc)?
**A.** absence of an aura and no occurrence of the expected lesion except for a very small lesion

**Q.** And the “duration of penile lesions” value [8, 12]?
**A.** 8 days

**Q.** What about the value of treatment [8, 12] of the same compound?
**A.** the last treatment appeared of no value

**Q.** And the recurrences [8, 13]?
**A.** recurrences were not eliminated

**Q.** What about the “time to disappearance of penile lesion” value [8, 13] of the same compound?
**A.** 2 to 3 days

**Q.** And the fever blisters ([8]; Patient C)?
**A.** cleared right away

**Q.** And the labial lesions ([8]; Patient C)?
**A.** two attacks of labial lesions cleared rapidly

**Q.** And the forehead lesion ([8]; Patient C, about a month later)?
**A.** crusted relatively quickly

**Q.** What about the further problems ([8]; Patient C, five and ten months after initial treatment) of the same compound?
**A.** no further problems

**Q.** And the lesions ([8]; Patient C, next day, 3.85 cc (5 mg/kg))?
**A.** markedly improved

**Q.** What about the infection ([8]; Patient I, first infusion 4.7 cc) of the same compound?
**A.** all clear

**Q.** What about the further lesions [8, 14] of the same compound?
**A.** no further lesions until one developed in the preceding week

**Q.** What about the nocturnal headaches [8, 14] of the same compound?
**A.** no further nocturnal headaches
